# Results as given in article PMC6426982, “Anti-alcohol abuse drug disulfiram inhibits human PHGDH via disruption of its active tetrameric form through a specific cysteine oxidation” (Scientific Reports, 2019).
# Residue numbers refer to the chain shown, from its start. Read-outs that look alike come from different tables or passages of the source.
# Legend:
# PHGDH [1] = target: T1, PHGDH (Homo sapiens, UniProt O43175); experiment: Cross-linking experiment with BS3 (oligomeric state); details: DSF 1-500 µM, 30 min, BS3 cross-linker
# T1 construct: peptides including 12 out of the 13 Cys residues of the full length PHGDH could be identified and tracked; made in house; host or cells: Escherichia coli BL21
# T1 sequence (O43175 1-533): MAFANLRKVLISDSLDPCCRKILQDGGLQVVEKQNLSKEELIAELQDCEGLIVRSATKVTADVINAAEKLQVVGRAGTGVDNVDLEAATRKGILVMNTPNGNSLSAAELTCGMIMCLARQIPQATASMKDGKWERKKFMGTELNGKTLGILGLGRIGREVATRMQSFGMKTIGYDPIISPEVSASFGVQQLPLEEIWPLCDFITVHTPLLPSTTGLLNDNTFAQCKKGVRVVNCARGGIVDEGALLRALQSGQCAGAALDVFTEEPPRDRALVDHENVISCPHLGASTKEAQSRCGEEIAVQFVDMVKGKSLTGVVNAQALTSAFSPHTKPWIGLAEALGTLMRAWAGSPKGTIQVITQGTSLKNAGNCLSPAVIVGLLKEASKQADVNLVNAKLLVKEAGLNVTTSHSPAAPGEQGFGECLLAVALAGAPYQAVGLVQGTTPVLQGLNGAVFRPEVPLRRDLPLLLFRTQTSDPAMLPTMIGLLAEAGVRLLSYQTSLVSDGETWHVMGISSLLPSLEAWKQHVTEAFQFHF
# Protocol: PHGDH (3 μg) was incubated with DSF (1 µM, 5 µM, 10 µM, 50 μM, 100 μM, 250 µM, 500 μM) or vehicle control (DMSO) in 25 mM HEPES, pH 7.3, and 1 mM NAD^+ in 18 μL total volume for 30 min on ice. BS3 (S5799; Sigma) cross-linker dissolved in PBS was added to a final concentration of 5 mM and incubated for 30 min under shaking at room temperature. The reaction was then quenched for 15 min by adding 1 M Tris, pH 7.5, to a final concentration of 28 mM. Cross-linked proteins were mixed with sample buffer, boiled for 5 min, and run on SDS/PAGE. Gels were stained with Gelcode blue stain reagent (24592; Thermo) overnight and destained according to the manufacturer’s instructions.
# human PHGDH (wild type) [2] = target: T2, human PHGDH (wild type) (Homo sapiens, UniProt O43175); experiment: PHGDH isolated enzyme inhibition assay (NADH fluorescence), wild type; assay type: biochemical
# T2 construct: peptides including 12 out of the 13 Cys residues of the full length PHGDH could be identified and tracked; made in house; host or cells: Escherichia coli BL21
# T2 sequence (O43175 1-533): T1 sequence (O43175 1-533)
# Protocol: Enzymatic assay was adapted from a previously described procedure. […] Assays were performed in PHGDH assay buffer (50 mM Tris, pH 8.5, and 1 mM EDTA). […] The final concentration of DMSO in the assay mixture was set to 5%.
# pET28a human PHGDH and pET28a human C116S PHGDH were transformed into BL21 Escherichia coli. A single colony was grown to an OD600 0.6 in 1 L of Luria broth. Protein expression was induced with 1 mM isopropyl thiogalactopyranoside (IPTG). […] Pellets were resuspended in 60 mL of lysis buffer (50 mM Tris, pH 8.5, 10 mM MgCl2, 300 mM NaCl, 10% glycerol, 5 mM imidazole) and sonicated, and cell debris were pelleted by centrifugation (20,000 × g, 30 min). The supernatant was collected and purified using Akta purifier on HisTrap^TM FF column (GE Healthcare). […] Fraction protein content was measured via a Bradford assay. […] Protein purity was assessed via SDS/PAGE and Coomassie staining.
# PHGDH cysteine residues = target: T3, PHGDH cysteine residues (Homo sapiens, UniProt O43175); experiment: nanoUHPLC/MS of tryptic PHGDH peptides after DSF treatment (cysteine modification)
# T3 construct: peptides including 12 out of the 13 Cys residues of the full length PHGDH could be identified and tracked; made in house; host or cells: Escherichia coli BL21
# T3 sequence (O43175 1-533): T1 sequence (O43175 1-533)
# Protocol: To unambiguously confirm this hypothesis and possibly identify the cysteine residues involved in this interaction, mass spectrometry experiments were undertaken. Briefly, PHGDH was incubated for 30 min with various concentrations of disulfiram (0.1x IC50, 1x IC50 and 10x IC50). At the end of the incubation, chloroacetamide was added and incubated 15′ in large excess in order to block the remaining free cysteines residues for the following analysis. The protein was separated from the medium (removal of the remaining chloroacetamide and DSF by liquid/liquid extraction with CHCl3/H2O) followed by trypsinization and analysis of the peptides by nanoUHPLC/MS.
# Mass spectrometry experiments were carried out on an Orbitrap Lumos, following a previously reported procedure, with some modifications. A local protein database containing the human PHGDH sequence (accession Uniprot O43175) was used to process the obtained MS/MS data. Mass error was set to 15 ppm for precursor ions and 0.6 Da for fragment ions. Oxidation on Met; disulfiram, (+147.025 Da) and carbamidomethyl (+57.021 Da) were considered as variable modifications on Cys.
# PHGDH [3] = target: T1, PHGDH; experiment: Incubation assay (time-dependent PHGDH inhibition); assay type: biochemical; details: DSF 50 µM, 45 min incubation, 37 °C, Fig. 1A; read-out: PHGDH inhibition after incubation
# Protocol: (§1) Figure 1 Characterization of PHGDH inhibition by DSF. Residual activity percentage of PHGDH (A) upon incubation with DSF (50 µM) for the indicated times and (B) after the rapid dilution assay experiment with DSF (50 µM). All experiments values were performed in triplicates at each compound dilution and error bars show the standard deviation. Data were collected at 37 °C with a PHGDH concentration of 12 ng/µL in 50 mM Tris and 1 mM EDTA at pH 8.5.
# (§2) Enzymatic assay was adapted from a previously described procedure. NADH fluorescence emission (Ex 340 nm/Em 460 nm) was followed over time. Assays were performed in PHGDH assay buffer (50 mM Tris, pH 8.5, and 1 mM EDTA). Substrates and enzyme concentrations were as follows: 3-PG, 240 μM; NAD^+, 120 μM; glutamate, 30 mM; PHGDH, 12 ng/μL; PSAT1, 20 ng/μL. The final concentration of DMSO in the assay mixture was set to 5%.
# human PHGDH (wild type) [4] = target: T2, human PHGDH (wild type); set-up: method as in PMID 28085281; details: drug screening campaign in the authors' lab; cited from earlier work
# UM-UC-3-PHGDH- cells = experiment: Cell proliferation inhibition (Presto Blue), cells not expressing PHGDH; assay type: cell-based; details: Homo sapiens, UMUC3, serine depleted media, 48 hours
# Protocol: (§3) UM-UC-3 (PHGDH+ and PHGDH-) bladder cancer cells were purchased from the ATCC and cultured in DMEM medium supplemented with 10% heat-inactivated Fetal Bovine Serum (FBS) and 1% penicillin/streptomycin. Cells were seeded at 2500 cells/well in 96-well plates in serine depleted media (MEM). DSF or vehicle (DSMO) was added and cells were grown for 48 hours. Viability was assessed using Presto Blue reagent (Life Technologies) according to manufacturer’s instructions.
# UM-UC-3-PHGDH+ cells = experiment: Cell proliferation inhibition (Presto Blue), PHGDH-expressing cells; assay type: cell-based, human
# Protocol: as §3
# [5] = cited from earlier work
# human PHGDH C116S mutant = target: T4, human PHGDH C116S mutant (Homo sapiens, UniProt O43175, C116S); experiment: PHGDH enzyme inhibition assay, C116S mutant; assay type: biochemical
# T4 construct: peptides including 12 out of the 13 Cys residues of the full length PHGDH could be identified and tracked; made in house; host or cells: Escherichia coli BL21
# T4 sequence (O43175 1-533 C116S): T1 sequence (O43175 1-533) with C116S
# Protocol: as §2
# pET28a human PHGDH and pET28a human C116S PHGDH were transformed into BL21 Escherichia coli. A single colony was grown to an OD600 0.6 in 1 L of Luria broth. Protein expression was induced with 1 mM isopropyl thiogalactopyranoside (IPTG). The culture was chilled on ice for 30 min, cultured for 18 h at room temperature and pelleted (6,000 g, 20 min). Pellets were resuspended in 60 mL of lysis buffer (50 mM Tris, pH 8.5, 10 mM MgCl2, 300 mM NaCl, 10% glycerol, 5 mM imidazole) and sonicated, and cell debris were pelleted by centrifugation (20,000 × g, 30 min). The supernatant was collected and purified using Akta purifier on HisTrap^TM FF column (GE Healthcare). […] Fraction protein content was measured via a Bradford assay. […] Protein purity was assessed via SDS/PAGE and Coomassie staining.
# PHGDH [6] = target: T1, PHGDH; experiment: Rapid dilution assay; assay type: biochemical; details: DSF 50 µM (Fig. 1B)
# Protocol: as §1
# Dilution experiment was conducted following a reported procedure. DSF (5 μM) or DMSO control was incubated with PHGDH for 45 min at 37 °C. Undiluted DSF (5 μM) was included as a positive control for inhibition.
smiles,measurement,setting,value
"CCN(CC)C(=S)SSC(=S)N(CC)CC [DSF, bis(diethylthiocarbamoyl) disulfide]",oligomeric state of PHGDH after DSF treatment,PHGDH [1],"concentration-dependent shift from the tetrameric to the dimeric, and to a lesser extent to the monomeric, form"
same,IC50,"human PHGDH (wild type) [2]; Wild Type PHGDH, Table 2, read-out: PHGDH inhibition (IC50)",590 nM
same,IC50,"human PHGDH (wild type) [2]; purified PHGDH, triplicates, Table 1, read-out: PHGDH inhibition (IC50)",590 nM
same,IC50,"human PHGDH (wild type) [2]; with Triton X 0.01%, Fig. S1B, read-out: IC50 on PHGDH WT",490 nM
same,IC50,"human PHGDH (wild type) [2]; without Triton X, Fig. S1A, read-out: IC50 on PHGDH WT",530 nM
same,"Percentage of modified peptides, C111","PHGDH cysteine residues; DSF 0.05 µM, peptide 91-119",4.87%
same,"Percentage of modified peptides, C116","PHGDH cysteine residues; DSF 0.05 µM, peptide 91-119",9.75%
same,"Percentage of modified peptides, C111","PHGDH cysteine residues; DSF 0.05 µM, peptide 92-119",1.92%
same,"Percentage of modified peptides, C116","PHGDH cysteine residues; DSF 0.05 µM, peptide 92-119",7.69%
same,"Percentage of modified peptides, C116","PHGDH cysteine residues; DSF 0.5 µM, peptide 91-119 (Ox M)",7.14%
same,"Percentage of modified peptides, C111","PHGDH cysteine residues; DSF 0.5 µM, peptide 92-119",6.67%
same,"Percentage of modified peptides, C116","PHGDH cysteine residues; DSF 0.5 µM, peptide 92-119",46.67%
same,"Percentage of modified peptides, C111","PHGDH cysteine residues; DSF 5 µM, peptide 91-119",4.16%
same,"Percentage of modified peptides, C116","PHGDH cysteine residues; DSF 5 µM, peptide 91-119",50.00%
same,"Percentage of modified peptides, C111","PHGDH cysteine residues; DSF 5 µM, peptide 92-119",10.34%
same,"Percentage of modified peptides, C116","PHGDH cysteine residues; DSF 5 µM, peptide 92-119",39.65%
same,"Percentage of modified peptides, C281","PHGDH cysteine residues; DSF 5 µM, peptide 271-289",1.26%
same,inhibition at 50 µM,PHGDH [3],100%
same,IC50,human PHGDH (wild type) [4],590 nM
same,IC50,UM-UC-3-PHGDH- cells,3.64 µM
same,IC50,"UM-UC-3-PHGDH+ cells; Homo sapiens, UMUC3, 48 h, UM-UC-3 +PHGDH, serine depleted media, 48 hours",775 nM
same,difference in proliferation IC50 between PHGDH- and PHGDH+ cells,UM-UC-3-PHGDH+ cells; UM-UC-3-PHGDH- versus UM-UC-3-PHGDH+,~ 5 fold
same,Cmax,"[5]; reported, read-out: maximum plasma concentration (Cmax)",1280 nM
same,elimination half-life,[5]; single-dose administration of 250 mg of DSF,7.3 h
same,decrease in inhibitory potency on C116S mutant versus wild type enzyme,human PHGDH C116S mutant,20 fold
same,IC50,"human PHGDH C116S mutant; C116S mutant, Table 2",10.2 µM
same,PHGDH activity after rapid dilution of the enzyme/inhibitor complex,PHGDH [6],not restored
"CCN(CC)C(=S)[S][Cu][S]C(=S)N(CC)CC [CuET, bis(diethyldithiocarbamate)–copper]",IC50,"human PHGDH (wild type) [2]; wild type PHGDH 12 ng/µL, 37 °C, pH 8.5, Fig. 2, read-out: PHGDH inhibition (IC50)",~10000 nM
same,fold weaker IC50 compared to DSF,human PHGDH (wild type) [2]; wtPHGDH,about 16 fold
